Assay results as given in patent publication US6346613B1, “Composition and method for enhancing paracellular transport across cell layers” (Elan Corporation, plc, priority 1997, dated 2002).
Several values for one entry are separate records, joined by “and”; a condition that tells them apart may be missing. Equal entries are not always repeated.

Legend:
Caco-2 monolayers = test: Transepithelial electrical resistance (TER) of Caco-2 monolayers on snapwells; assay type: cell-based, Human; design: unit not given beside the values; details: Experiment 1, per snapwell, treatment with lipofectamine + oligonucleotide
Description: All solutions were warmed to 37° C. before use.

[1] = Experiment 1, [3H]-mannitol, 90 minutes, Caco-2

Description for polarized Caco-2 cells: Human intestinal Caco-2 cells were grown using standard techniques well known to those skilled in the art. The cells were seeded onto polycarbonate filters (Costar Snapwells; diameter=12 mm; area=1.13 cm^2; pore size=0.4m) at a density of 0.5×10^6 cm^2. For antisense oligonucleotide studies, 18-25 day old cell monolayers were used which have transepithelial electrical resistance (TER) measurements in the range 200-400 cm^2.
All incubations were at 37° C. in 5% CO2 atmosphere. All solutions were warmed to 37° C. before use. The following procedure was carried out once a day over three days. After reading the TER, the cells were washed once and incubated in a reduced serum medium (RSM; Opti-MEM 1 with GlutaMax 1; Gibco-BRL) for 30 minutes. Meanwhile, the lipofectamine-oligonucleotide complex was allowed to form at room temperature. Lipofectamine (20 μl/snapwell; Gibco BRL CN. 18324-012) was mixed with occludin antisense DNA oligonucleotide, with occludin scrambled oligonucleotide or with water control in RSM.
The lipofectin:oligonucleotide complex was added to the apical surface of the snapwells and the cells were incubated for 2 hours. The apical and basolateral media were then replaced with normal medium (except on day 4). After the 2 hour incubation on day 3, transepithelial flux of ^3H-mannitol was measured.
Caco-2 cells were washed once in buffered Hank's balanced salt solution (bHBSS; Gibco CN.14065-031; supplemented with 0.011M glucose, 15 mM HEPES acid [3.575 g/l; Sigma CN.H3375], 10 mM HEPES base [2.603 g/l; Sigma CN. H1016]) and were incubated 30 minutes. The apical reservoir bHBSS was replaced with 1 ml buffered HBSS containing 1 μCi/ml of the hydrophilic marker ^3H-mannitol (New England Biolabs). […] The samples were added to 4 ml scintillation fluid and radioactivity for each vial counted on a scintillation counter.
Fully differentiated Caco-2 monolayers were grown as in Example 1. […] On day 4, [^3H]-mannitol was applied to the apical domain and flux was determined by measuring the radioactivity (cpm) transferred to the basolateral reservoir over 90 minutes as in Example 3. […]

Row | Substance | TER (Caco-2 monolayers; listed as Lipofectamine + Occludin Antisense) | increase in flux relative to no oligonucleotide (polarized Caco-2 cells; [1]) [fold] | increase in flux relative to occludin scrambled oligonucleotide (polarized Caco-2 cells; [1]) [fold] | mean increase in [3H]-mannitol flux relative to control scrambled sequence antisense DNA (polarized Caco-2 cells; Experiment 2 (FIG. 2), 500 μM, Caco-2 monolayers on snapwells) [fold] | TER (Caco-2 monolayers; listed as Lipofectamine + Scrambled Antisense)
1 | 5′ AAG AGG CCT GGA TGA CA 3′ (antisense AAGAGGCCTGGATGACA; chemistry not given here) [occludin antisense oligonucleotide] | 1260 and 1410 | 1.6 | 1.6 | 2.2 | 
2 | 5′ GCA AGT CAG GAC GTA GA 3′ (GCAAGTCAGGACGTAGA; chemistry not given here) [occludin scrambled oligonucleotide, reference compound] |  |  |  |  | 1280 and 1700
